Assay results reported in PubChem BioAssay (NCI).
Where “and” joins values, the source holds several entries; their conditions need not be identical. Identical values can stand only once.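 Dose response: 5 concentrations. Exposure: 48 h. Format: 96-well plates. Endpoint: linear interpolation; highest concentration if not reached. The concentration for 50% growth inhibition is given as GI50. TGI is the concentration that stops growth completely.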

Tests used:
Assay in all cases: inhibition of tumour cell growth, NCI panel, 48 h
SR leukemia = tested on: SR leukemia
MDA-MB-231 breast = tested on: MDA-MB-231 breast
HT29 colon = tested on: HT29 colon
PC-3 prostate = tested on: PC-3 prostate
786-0 renal = tested on: 786-0 renal
NCI/ADR-RES ovarian = tested on: NCI/ADR-RES ovarian
EKVX NSCLC = tested on: EKVX NSCLC
NCI-H460 lung = tested on: NCI-H460 lung
KM12 colon = tested on: KM12 colon
HOP-92 NSCLC = tested on: HOP-92 NSCLC

NC(=O)c1ccc(NN=O)nc1
TGI (SR leukemia): > 100 µM
TGI (MDA-MB-231 breast): > 100 µM
TGI (HT29 colon): > 100 µM
TGI (PC-3 prostate): > 100 µM
TGI (786-0 renal): > 100 µM
TGI (NCI/ADR-RES ovarian): > 100 µM
TGI (EKVX NSCLC): > 100 µM
TGI (NCI-H460 lung): > 100 µM
TGI (KM12 colon): > 100 µM
GI50 (HOP-92 NSCLC): > 100 µM
TGI (HOP-92 NSCLC): > 100 µM

C[C@H](Nc1ncnc2nc[nH]c12)c1cc2ccc(F)cc2nc1-c1ccccn1
GI50 (SR leukemia): 33.4 µM
TGI (SR leukemia): > 100 µM
GI50 (MDA-MB-231 breast): > 80 µM
TGI (MDA-MB-231 breast): > 100 µM
GI50 (HT29 colon): > 100 µM
TGI (HT29 colon): > 100 µM
GI50 (PC-3 prostate): 25 µM
TGI (PC-3 prostate): > 100 µM
GI50 (786-0 renal): 14.3 µM
TGI (786-0 renal): > 100 µM
GI50 (NCI/ADR-RES ovarian): > 100 µM
TGI (NCI/ADR-RES ovarian): > 100 µM
GI50 (EKVX NSCLC): > 70.7 µM
TGI (EKVX NSCLC): > 100 µM
GI50 (NCI-H460 lung): > 100 µM
TGI (NCI-H460 lung): > 100 µM
GI50 (KM12 colon): > 100 µM
TGI (KM12 colon): > 100 µM
GI50 (HOP-92 NSCLC): 3.43 µM
TGI (HOP-92 NSCLC): > 100 µM

CCCCCCCCCCCCCC1=NCCN1CCO
GI50 (SR leukemia): 3.75 µM
TGI (SR leukemia): > 100 µM
GI50 (MDA-MB-231 breast): 3.04 µM
TGI (MDA-MB-231 breast): 8.28 µM
GI50 (HT29 colon): 2.81 µM
TGI (HT29 colon): > 28.6 µM
GI50 (PC-3 prostate): 3.37 µM
TGI (PC-3 prostate): > 34.5 µM
GI50 (786-0 renal): 5.17 µM
TGI (786-0 renal): 11.2 µM
GI50 (NCI/ADR-RES ovarian): 5 µM
TGI (NCI/ADR-RES ovarian): 21.2 µM
GI50 (EKVX NSCLC): 8.35 µM
TGI (EKVX NSCLC): 28.4 µM
GI50 (NCI-H460 lung): 2.13 µM
TGI (NCI-H460 lung): 4.63 µM
GI50 (KM12 colon): 3 µM
TGI (KM12 colon): 9 µM
GI50 (HOP-92 NSCLC): 3.65 µM
TGI (HOP-92 NSCLC): 23.6 µM

CCOC(=O)c1c(C)n2c(=O)cc(C)c3c(O)c(O)cc1c32
GI50 (SR leukemia): 0.721 µM
TGI (SR leukemia): 17 µM
GI50 (MDA-MB-231 breast): 4.49 µM
TGI (MDA-MB-231 breast): 30.2 µM
GI50 (HT29 colon): 24.5 µM
TGI (HT29 colon): > 100 µM
GI50 (PC-3 prostate): 4.23 µM
TGI (PC-3 prostate): > 100 µM
GI50 (786-0 renal): 8.83 µM
TGI (786-0 renal): > 100 µM
GI50 (NCI/ADR-RES ovarian): 28.3 µM
TGI (NCI/ADR-RES ovarian): 89.4 µM
GI50 (EKVX NSCLC): 20.8 µM
TGI (EKVX NSCLC): > 100 µM
GI50 (NCI-H460 lung): 12.9 µM
TGI (NCI-H460 lung): > 100 µM
GI50 (KM12 colon): 4.13 µM
TGI (KM12 colon): 42.2 µM
GI50 (HOP-92 NSCLC): 2.49 µM
TGI (HOP-92 NSCLC): 31.6 µM

O=[N+]([O-])c1ccc(Sc2ncnc3nc[nH]c23)c2nonc12
GI50 (SR leukemia): 0.723 µM
TGI (SR leukemia): 13 µM
GI50 (MDA-MB-231 breast): 8.15 µM
TGI (MDA-MB-231 breast): 24.2 µM
GI50 (HT29 colon): 3.88 µM
TGI (HT29 colon): 20.6 µM
GI50 (PC-3 prostate): 13.1 µM
TGI (PC-3 prostate): 30 µM
GI50 (786-0 renal): 1.74 µM
TGI (786-0 renal): 5.16 µM
GI50 (NCI/ADR-RES ovarian): 5.16 µM
TGI (NCI/ADR-RES ovarian): 28.9 µM
GI50 (EKVX NSCLC): 18.1 µM
TGI (EKVX NSCLC): 36.5 µM
GI50 (NCI-H460 lung): 9.73 µM
TGI (NCI-H460 lung): 35.2 µM
GI50 (KM12 colon): 15.1 µM
TGI (KM12 colon): > 100 µM
GI50 (HOP-92 NSCLC): 2 µM
TGI (HOP-92 NSCLC): 22.2 µM

COC1CCN(C(=O)c2cc(Cc3n[nH]c(=O)c4ccccc34)ccc2F)CC1
GI50 (SR leukemia): 21.7 µM
TGI (SR leukemia): > 100 µM
GI50 (MDA-MB-231 breast): > 100 µM
TGI (MDA-MB-231 breast): > 100 µM
GI50 (HT29 colon): > 100 µM
TGI (HT29 colon): > 100 µM
GI50 (PC-3 prostate): > 87.6 µM
TGI (PC-3 prostate): > 100 µM
GI50 (786-0 renal): > 100 µM
TGI (786-0 renal): > 100 µM
GI50 (NCI/ADR-RES ovarian): > 76.8 µM
TGI (NCI/ADR-RES ovarian): > 100 µM
GI50 (EKVX NSCLC): > 100 µM
TGI (EKVX NSCLC): > 100 µM
GI50 (NCI-H460 lung): 25.6 µM
TGI (NCI-H460 lung): > 100 µM
GI50 (KM12 colon): > 100 µM
TGI (KM12 colon): > 100 µM
GI50 (HOP-92 NSCLC): 41.5 µM
TGI (HOP-92 NSCLC): > 100 µM

c1cc2[nH]ncc2cc1-c1nc2ccc3[nH]ncc3c2c2c1CCCC2
GI50 (SR leukemia): 0.338 µM
GI50 (MDA-MB-231 breast): 2.67 µM
TGI (MDA-MB-231 breast): 11.6 µM
GI50 (HT29 colon): 1.59 µM
TGI (HT29 colon): 13.1 µM
GI50 (PC-3 prostate): 1.44 µM
TGI (PC-3 prostate): 21.5 µM
GI50 (786-0 renal): 2.1 µM
TGI (786-0 renal): 11.3 µM
GI50 (NCI/ADR-RES ovarian): 2.08 µM
TGI (NCI/ADR-RES ovarian): 16.4 µM
GI50 (EKVX NSCLC): 1.91 µM
TGI (EKVX NSCLC): 9.15 µM
GI50 (NCI-H460 lung): 1.2 µM
TGI (NCI-H460 lung): 10.5 µM
GI50 (KM12 colon): 0.563 µM
TGI (KM12 colon): 11.5 µM
GI50 (HOP-92 NSCLC): 0.966 µM
TGI (HOP-92 NSCLC): 4.58 µM

CS(=O)(=O)Nc1ccc(-c2cc(-c3ccccc3)cc(C(N)=O)c2N)cc1
GI50 (SR leukemia): 16.5 µM
TGI (SR leukemia): > 25 µM
GI50 (MDA-MB-231 breast): > 25 µM
TGI (MDA-MB-231 breast): > 25 µM
GI50 (HT29 colon): > 25 µM
TGI (HT29 colon): > 25 µM
GI50 (PC-3 prostate): 14.2 µM
TGI (PC-3 prostate): > 25 µM
GI50 (786-0 renal): > 25 µM
TGI (786-0 renal): > 25 µM
GI50 (NCI/ADR-RES ovarian): > 25 µM
TGI (NCI/ADR-RES ovarian): > 25 µM
GI50 (EKVX NSCLC): > 25 µM
TGI (EKVX NSCLC): > 25 µM
GI50 (NCI-H460 lung): > 25 µM
TGI (NCI-H460 lung): > 25 µM
GI50 (KM12 colon): 20.5 µM
TGI (KM12 colon): > 25 µM
GI50 (HOP-92 NSCLC): 8.9 µM
TGI (HOP-92 NSCLC): > 25 µM

O=C(CN(/C=C/C(=O)C(F)(F)F)c1ccc(Cl)cc1)c1ccccc1
GI50 (SR leukemia): 14.8 µM
TGI (SR leukemia): 57 µM
GI50 (MDA-MB-231 breast): 15.8 µM
TGI (MDA-MB-231 breast): 33.8 µM
GI50 (HT29 colon): 25.8 µM
TGI (HT29 colon): > 100 µM
GI50 (PC-3 prostate): 17 µM
TGI (PC-3 prostate): 35.3 µM
GI50 (786-0 renal): 13.5 µM
TGI (786-0 renal): 31.3 µM
GI50 (NCI/ADR-RES ovarian): 14.1 µM
TGI (NCI/ADR-RES ovarian): 30.3 µM
GI50 (EKVX NSCLC): 15.1 µM
TGI (EKVX NSCLC): 34.1 µM
GI50 (NCI-H460 lung): 52.9 µM
TGI (NCI-H460 lung): > 100 µM
GI50 (KM12 colon): 10.8 µM
TGI (KM12 colon): 36.6 µM
GI50 (HOP-92 NSCLC): 10.4 µM
TGI (HOP-92 NSCLC): 28.1 µM

C=CC(=O)NCc1cccc(Nc2ncc(Br)c(NCCCNC(=O)C3CCC3)n2)c1
GI50 (SR leukemia): 0.394 µM
TGI (SR leukemia): 12.5 µM
GI50 (MDA-MB-231 breast): 0.567 µM and 0.463 µM
TGI (MDA-MB-231 breast): 11.6 µM and 1.8 µM
GI50 (HT29 colon): 1.67 µM and 0.27 µM
TGI (HT29 colon): 12.5 µM and 4.83 µM
GI50 (PC-3 prostate): 1.55 µM and 0.933 µM
TGI (PC-3 prostate): 12.5 µM and 7.04 µM
GI50 (786-0 renal): 1.29 µM and 1.26 µM
TGI (786-0 renal): 6.16 µM and > 25 µM
GI50 (NCI/ADR-RES ovarian): 7.28 µM and 7.94 µM
TGI (NCI/ADR-RES ovarian): 12.5 µM and > 25 µM
GI50 (EKVX NSCLC): 1.59 µM and 2.59 µM
TGI (EKVX NSCLC): 6.07 µM and 14.9 µM
GI50 (NCI-H460 lung): 0.941 µM and 1.27 µM
TGI (NCI-H460 lung): 4.7 µM and 5.55 µM
GI50 (KM12 colon): 0.806 µM and 0.861 µM
TGI (KM12 colon): 12.5 µM and > 25 µM
GI50 (HOP-92 NSCLC): 0.637 µM and 0.596 µM
TGI (HOP-92 NSCLC): 5.21 µM and 16.4 µM

O=[N+]([O-])c1ccccc1N/N=C\c1c[nH]c2ccccc12
GI50 (SR leukemia): 3.4 µM
TGI (SR leukemia): > 100 µM
GI50 (MDA-MB-231 breast): 2.98 µM
TGI (MDA-MB-231 breast): 20.5 µM
GI50 (HT29 colon): 16.8 µM
TGI (HT29 colon): > 61.7 µM
GI50 (PC-3 prostate): 4.25 µM
TGI (PC-3 prostate): > 100 µM
GI50 (786-0 renal): 18.8 µM
TGI (786-0 renal): > 93.1 µM
GI50 (NCI/ADR-RES ovarian): 8.85 µM
TGI (NCI/ADR-RES ovarian): > 100 µM
GI50 (EKVX NSCLC): 2.49 µM
TGI (EKVX NSCLC): > 100 µM
GI50 (NCI-H460 lung): 10.3 µM
TGI (NCI-H460 lung): > 100 µM
GI50 (KM12 colon): 6.1 µM
TGI (KM12 colon): > 100 µM
GI50 (HOP-92 NSCLC): 4.45 µM
TGI (HOP-92 NSCLC): 49.2 µM
